Data taken from US11572369B2, “Bicyclic pyridine compositions and methods of using the same for cancer therapy” (UNIVERSITY OF SOUTH CAROLINA, priority 2019, dated 2023).
Where two headings read alike, the source gives them in different places.

What was measured:
Mouse PK, intravenous = assay type: in vivo; details: female FVB mice, i.v. 0.5 mg/kg, mixture; for AUC / C0 / Vd / half-life: mouse, serum, iv
Protocol: Pharmacokinetics (PK) Assay. To measure mouse pharmacokinetics (PK), thienopyridine derivatives were dissolved in 5% dextrose and administered to female FVB mice at different dosing conditions; blood samples were collected at different time points and compound concentrations in the serum were measured by LC/MS/MS.

Mouse PK, oral 1 mg/kg = assay type: in vivo; details: female, FVB, serum, mice, oral (gavage) 1 mg/kg; for bioavailability: read-out: Bioavailability (F %)
CDK8/19 = experiment: NFκB Activity Assay (NFκB luciferase reporter, parental 293 cells); assay type: cell-based
[1] = tested on: alkaline phosphatase (ALPase) in bone marrow stromal cell line ST2; details: cited from earlier work; for ALP activity Assay EC200: concentration that enhances ALPase activity to 200% of control, ST2 cells, Saito (2013)
[2] = tested on: NFκB activation in CDK8/19-deficient cells; experiment: NFκB reporter assay in CDK8/19 double-knockout 293 reporter cells; details: CDK8/19 double-knockout reporter cells
[3] = tested on: PSA expression in CRPC cell line C4-2; experiment: PSA expression in C4-2 cell culture supernatant; assay type: cell-based; details: C4-2 culture supernatant, 4-day treatment, FBS-supplemented regular media, read-out: IC50, suppression of PSA expression
Description: CDK8/19 inhibition decreases the expression of certain androgen-receptor (AR) inducible genes including PSA, the most common marker of prostate cancer, and the growth of castration-refractory prostate cancers (CRPC).

[4] = Saito, 2013; cited from earlier work
in vivo = details: female, CD-1, mouse, serum, po
[5] = Oral PK in female CD-1 mice, solution formulation; details: oral gavage in solution, 30 mg/kg (15u series) or 16/18 mg/kg (15w series)
MYC-CAP-CR cells [6] = experiment: Short-term cell proliferation assay, MYC-CAP-CR; assay type: cell-based, murine; details: androgen-containing media
[7] = tested on: 4T1 murine triple-negative breast cancer; experiment: 4T1 TNBC lung metastasis survival after primary tumor removal; assay type: in vivo, mouse; details: medicated food (350 ppm) plus one oral dose 50 mg/kg after removal of primary tumor
MV4-11 cells = experiment: MV4-11-Luc proliferation assay; details: Homo sapiens, MV4-11, read-out: Inhibition Potency MV4-11-Luc Assay
MYC-CAP-CR cells [8] = experiment: Long-term clonogenic assay, MYC-CaP-CR; assay type: cell-based, murine
MYC-CaP-CR tumors = experiment: MYC-CaP-CR subcutaneous tumors in intact FVB male mice; assay type: in vivo, mouse; details: intact (uncastrated) FVB male mice
[9] = parental 293-derived reporter cell line, read-out: NFκB activity Assay IC50
[10] = read-out: Inhibition Potency HEK293-NFkB-Luc Assay, read-out: Inhibition Potency HEK238-NFkB-Luc Assay

Compound: NC(=O)c1sc2nccc(N3CCCN(c4ccccc4)CC3)c2c1N [15k]
- Elimination rate (Mouse PK, intravenous): 4.59 h⁻¹
- AUC (Mouse PK, intravenous): 40.8 ng·h/mL
- C0 (Mouse PK, intravenous): 168 ng/mL
- Vd (Mouse PK, intravenous): 2.98 L/kg
- half-life (Mouse PK, intravenous): 9 min
- AUC (Mouse PK, oral 1 mg/kg): 7.6 ng·h/mL
- half-life (Mouse PK, oral 1 mg/kg): 18 min
- bioavailability (Mouse PK, oral 1 mg/kg): 9%

Compound: Cc1ccc(N2CCCN(c3ccnc4sc(C(N)=O)c(N)c34)CC2)cc1 [15n]
- IC50 (CDK8/19; [9]): 37.8 nM
- ALP activity Assay EC200 [1]: 88.1 nM

Compound: COc1ccc(N2CCCN(c3ccnc4sc(C(N)=O)c(N)c34)CC2)cc1 [15q]
- IC50 (CDK8/19; [9]): 43.1 nM
- ALP activity Assay EC200 [1]: 115.4 nM

Compound: CNC(=O)c1ccc(N2CCCN(c3ccnc4sc(C(N)=O)c(N)c34)CC2)cc1 [15v]
- Elimination rate (Mouse PK, intravenous): 4.33 h⁻¹
- AUC (Mouse PK, intravenous): 61.2 ng·h/mL
- C0 (Mouse PK, intravenous): 234 ng/mL
- Vd (Mouse PK, intravenous): 2.14 L/kg
- half-life (Mouse PK, intravenous): 9.6 min
- IC50 (CDK8/19; [10]): 23.1 nM
- AUC (Mouse PK, oral 1 mg/kg): 21.8 ng·h/mL
- Cmax (Mouse PK, oral 1 mg/kg): 7.2 ng/mL
- half-life (Mouse PK, oral 1 mg/kg): 72 min
- bioavailability (Mouse PK, oral 1 mg/kg): 18%

Compound: CN(C)C(=O)Cc1ccc(N2CCCN(c3ccnc4sc(C(N)=O)c(N)c34)CC2)cc1 [15w, 3-amino-4-(4-(4-(2-(dimethylamino)-2-oxoethyl)phenyl)-1,4-diazepan-1-yl)thieno[2,3-b]pyridine-2-carboxamide]
- effect on NFκB activation in CDK8/19-deficient cells [2]: no effect
- IC50 ([3]; 96 h): 15.7 nM
- IC50 (CDK8/19; [10]): 4.1 nM
- pharmacokinetics [4]: poor pharmacokinetics (PK) with low Cmax
- AUC (Mouse PK, oral 1 mg/kg): 29.2 ng·h/mL
- half-life (Mouse PK, oral 1 mg/kg): 18 min
- bone anabolic activity in a cell-based assay ([1]; Saito, 2013): highest bone anabolic activity
- ALP activity Assay EC200 [1]: 6.6 nM
- AUC(0-t) (in vivo; 16 mg/kg): 400 ng·h/mL

Compound: [2H]C([2H])(C(=O)N(C)C)c1ccc(N2CCCN(c3ccnc4sc(C(N)=O)c(N)c34)CC2)cc1 [15w_D2, 3-amino-4-(4-(4-(2-(dimethylamino)-2-oxoethyl-1,1-d2)phenyl)-1,4-diazepan-1-yl)thieno[2,3-b]pyridine-2-carboxamide]
- IC50 (CDK8/19; [10]): 8.8 nM
- PK (AUC 0-8 h) versus undeuterated parent [5]: did not improve the PK
- AUC(0-t) (in vivo; 18 mg/kg): 380 ng·h/mL

Compound: [2H]C([2H])([2H])N(C(=O)Cc1ccc(N2CCCN(c3ccnc4sc(C(N)=O)c(N)c34)CC2)cc1)C([2H])([2H])[2H] [15w_D6, 3-amino-4-(4-(4-(2-(bis(methyl-d3)amino)-2-oxoethyl)phenyl)-1,4-diazepan-1-yl)thieno[2,3-b]pyridine-2-carboxamide]
- IC50 (CDK8/19; [10]): 3.8 nM
- PK (AUC 0-8 h) versus undeuterated parent [5]: much improved the PK
- AUC(0-t) (in vivo; 16 mg/kg): 770 ng·h/mL

Compound: CN1CCN(C(=O)c2ccc3cc(CCNc4ncnc5ccc(C#N)cc45)ccc3c2)CC1 [Senexin B, reference compound]
- IC50 [3]: 255 nM
- MYC-CAP-CR cell growth (MYC-CAP-CR cells [6]): little effect
- mouse survival of the metastatic disease [7]: statistically significant but moderate increase in survival

Compound: NC(=O)c1sc2nccc(N3CCCN(c4ccc(C(=O)NCCCO)cc4)CC3)c2c1N [compound 6263]
- IC50 (MV4-11 cells): 83 nM
- IC50 (CDK8/19; [10]): 169 nM

Compound: CN(CCCO)C(=O)c1ccc(N2CCCN(c3ccnc4sc(C(N)=O)c(N)c34)CC2)cc1 [compound 6264, 3-amino-4-(4-(4-((3-hydroxypropyl)(methyl)carbamoyl)phenyl)-1,4-diazepan-1-yl)thieno[2,3-b]pyridine-2-carboxamide]
- IC50 (MV4-11 cells): 31 nM
- IC50 (CDK8/19; [10]): 37 nM
- AUC(0-t) (in vivo; 25 mg/kg): 470 ng·h/mL

Compound: CN1CCN(C(=O)c2ccc(N3CCCN(c4ccnc5sc(C(N)=O)c(N)c45)CC3)cc2)CC1 [compound 6268]
- IC50 (MV4-11 cells): 42 nM
- IC50 (CDK8/19; [10]): 31 nM

Compound: CN(C)C(=O)c1ccc(CN2CCCN(c3ccnc4sc(C(N)=O)c(N)c34)CC2)cc1 [compound 6269]
- IC50 (MV4-11 cells): 683 nM
- IC50 (CDK8/19; [10]): 1000 nM

Compound: NC(=O)c1sc2nccc(N3CCCN(c4ccc(C(=O)N5CCNCC5)cc4)CC3)c2c1N [compound 6271]
- IC50 (MV4-11 cells): 79 nM
- IC50 (CDK8/19; [10]): 233 nM

Compound: CN(C)C(=O)c1ccc(N2CCCN(c3ccnc4[nH]c(C(N)=O)cc34)CC2)cc1 [compound 6284]
- IC50 (CDK8/19; [10]): > 1000 nM

Compound: CN(CCCNC(=O)OC(C)(C)C)C(=O)c1ccc(N2CCCN(c3ccnc4sc(C(N)=O)c(N)c34)CC2)cc1 [compound 6292]
- IC50 (CDK8/19; [10]): 594 nM

Compound: CN(CCCN)C(=O)c1ccc(N2CCCN(c3ccnc4sc(C(N)=O)c(N)c34)CC2)cc1 [compound 6293]
- IC50 (CDK8/19; [10]): 50 nM

Compound: CN(C)C(=O)c1ccc(N2CCCN(c3ccnc4sc(C(N)=O)cc34)CC2)cc1 [compound 6296]
- IC50 (CDK8/19; [10]): > 1000 nM

Compound: CN(C)C(=O)c1ccc(N2CCCN(c3ccnc4sc(C#N)c(N)c34)CC2)cc1 [compound 6298]
- IC50 (CDK8/19; [10]): 379 nM

Compound: CN1CCN(Cc2ccc(N3CCCN(c4ccnc5sc(C(N)=O)c(N)c45)CC3)cc2)CC1 [compound 6300, 3-amino-4-(4-(4-((4-methylpiperazin-1-yl)methyl)phenyl)-1,4-diazepan-1-yl)thieno[2,3-b]pyridine-2-carboxamide]
- IC50 (CDK8/19; [10]): 4.9 nM
- AUC(0-t) (in vivo; 30 mg/kg): 210 ng·h/mL

Compound: Cc1cc(N2CCCN(c3ccc(C(=O)N(C)C)cc3)CC2)c2c(N)c(C(N)=O)sc2n1 [compound 6304, 3-amino-4-(4-(4-(dimethylcarbamoyl)phenyl)-1,4-diazepan-1-yl)-6-methylthieno[2,3-b]pyridine-2-carboxamide]
- IC50 (CDK8/19; [10]): 13.6 nM
- AUC(0-t) (in vivo; 16 mg/kg): 2200 ng·h/mL

Compound: CN(C)C(=O)c1ccc(N2CCCN(c3ccnc4[nH]c(C(N)=O)c(N)c34)CC2)cc1 [compound 6307]
- IC50 (CDK8/19; [10]): > 1000 nM

Compound: CN(C)C(=O)c1ccc(N2CCCN(c3ccnc4oc(C(N)=O)c(N)c34)CC2)cc1 [compound 6318]
- IC50 (CDK8/19; [10]): > 1000 nM

Compound: CNC(=O)c1ccc(N2C(=S)N(c3ccc(C#N)c(C(F)(F)F)c3)C(=O)C2(C)C)cc1F [enzalutamide]
- MYC-CAP-CR cell growth (MYC-CAP-CR cells [6]): paradoxically stimulated the growth
- MYC-CaP-CR colony formation (MYC-CAP-CR cells [8]): decreased MYC-CaP-CR colony formation
- tumor volume and weight (MYC-CaP-CR tumors): modest effect
